Results on one compound are retold here after article PMC10424179, “Disrupting Kaposi’s Sarcoma-Associated Herpesvirus (KSHV) Latent Replication with a Small Molecule Inhibitor” (Journal of Medicinal Chemistry, 2023).

Read-outs that look alike come from different tables or passages of the source.

The target of assay [1] is LANA–DNA interaction (oligomerization-deficient LANA DBD aa 1008–1146 mutant / LBS1) (Human herpesvirus 8 (Kaposi's sarcoma-associated herpesvirus), UniProt Q76SB0). Description: Electrophoretic mobility shift assay (EMSA), LANA DBD mutant with LBS1 oligonucleotide. The format is biochemical, Kaposi's sarcoma-associated herpesvirus (KSHV). The procedure:
In these assays, an oligomerization-deficient mutant of a LANA C-terminal protein fragment (aa 1008–1146) and an oligonucleotide representing LANA-binding site (LBS) 1 were used, which are convenient to use and handle for the described biophysical methods, while maintaining the essential DNA-binding interface.[25]
Equation y = A2 + (A1-A2)/(1 + (x/x0)^p) […]
1.4 Electrophoretic Mobility Shift Assay (EMSA)
The EMSA was carried out with slight modific ations as described previously 2 based on the assay in Hellert et al. (2013). 3 His-tagged oligomerization-deficient LANA DBD (aa1008-1146) mutant protein or LANA DBD (aa934-1162) wild type protein (200 nM final) was incubated with a 5´-Dy682-labeled double stranded DNA probe (IBA Lifesciences) (20 nM final) for 30 minutes at RT in the dark. The reaction buffer consisted of 30 mM Tris HCl pH 7.5, 50 mM KCl, 10 mM MgCl2, 1 mM DTT, 1 mM EDTA, 10% glycerol, 0.25% Tween20, 0.5 mg/mL BSA and 0.05 mg/mL poly(dI-dC). […]
dark. 10 µL of the reaction was run on a pre -run native 5% acrylamide gel for 45 minutes at 100V with tris-borate-EDTA buffer. Images of the gels were acquired and analysed with the Odyssey (Licor) using the Image Studio software.
Fig S2: Gels of EMSA experiments at 250 μM for all compounds (A) and dose-dependent curves for compound 20 using LANA DBD mutant (B) and LANA wildtype (C) as well as LBS1. Values are means […]
Gleichung y = A2 + (A1-A2)/(1 + (x/x0)^p) […]
On the technique in general: A gel shift assay detects complexes by their altered migration in electrophoresis.

The subject of assay [2] is LANA-mediated replication of TR-containing plasmid pGTR4:73 in HEK293 cells. Description: Cell-based replication assay (Southern blot). The note with it: Homo sapiens. From the text:
Figure 3 (A) Illustration of the replication assay. […] (C) Bar graph of the intensity of the pGTR4:73 band after digestion with MfeI and DpnI on the Southern blot shown in panel B at different concentrations for compound 20. Values are means of two replicates.
For the replication assay (Figure 3A), plasmids containing four copies of the terminal repeat of the viral genome and a LANA expression cassette are transfected into HEK293 cells. […] The cells that can express LANA will now amplify the plasmids with the help of LANA and maintain them over several days of cell growth. Where LANA is not expressed, only the transfected plasmids remain and are slowly thinned out by cell growth. After transfection, cells are treated with the compounds or DMSO and allowed to grow for three days. Then, the plasmid DNA is isolated from the cell. The DNA is digested in two separate batches. First, to linearize them (MfeI) and second, with an enzyme (DpnI) that only digests DNA that has a specific methylation pattern derived from the bacteria, in which these plasmids had been amplified. […] One batch contains both enzymes, and only the replicated linearized DNA remains there. The second batch (control) contains only the linearizing enzyme. […] The DNA is separated on a gel by electrophoresis and transferred to a membrane for immobilization (Southern blot). The DNA can then be visualized on this membrane using an enzyme-labeled probe, since the enzyme can generate chemiluminescence with a specific substrate. This assay is designed to specifically probe the LANA-mediated replication of plasmid DNA indicating on-target cellular activity. We performed the assay in a concentration range between 15.625 and 62.5 μM. For compound 20, we observed the strongest inhibitory effect (Figure 3B,C).
This assay is based on protocols described previously and was modified as described in the following. 4 8 x 10^5 HEK 293 cells were plated per well in a 6-well plate. […]

For the compound `COc1ccc(-c2cc(C)c(-n3cc(-c4ccc(C(=O)O)cc4)nn3)cn2)c(Cl)c1` [Compound 20], the “Inhibition (EMSA, LBS1) @250 μM” value in assay [1] (compound at 250 μM, LBS1 oligonucleotide, LANA aa 1008–1146 mutant) was determined as 93%. Also, the IC50 was 43.7 µM in assay [1] (read-out: x0 of logistic fit, dose-dependent EMSA curve (converted), Fig S2, LBS1, curve with A2 95.7, assigned to LANA DBD mutant); 33.2 ± 3.6 µM in assay [2] (72 h, HEK293 cells, three days of treatment, estimated from Southern blot, read-out: IC50 value (southern blot)); 33.2 µM in assay [2] (Fig S5B, HEK293 replication assay, read-out: x0 of logistic fit, sigmoidal plot of southern blot (converted)). This compound also returned an inhibition at 62.5 µM in assay [2] (72 h, HEK293 cells, 62.5 μM, three days of treatment) of 67%.

As a reminder, the inhibition is the change of the read-out against control, counted positive when it falls. High values mean a response far below the control, low ones a response near the control.
